# Data as given in patent US12466885B2, “Bispecific chimeric antigen receptors and encoding polynucleotides, vectors and cells thereof” (Seattle Children's Hospital, priority 2012, dated 2025).
# Experiments:
# [1] = system: transduced CTLL2 cells; test: MTX resistance and selection of CD19CAR-huEGFRt-hDHFR^FS transduced CTLL2 cells; type: cell-based, murine; conditions: for huEGFRt^+ cells: 8 days
# Method: CTLL2 T cells were first transduced with this CD19CAR-huEGFRt-hDHFR^FS lentiviral vector and evaluated for their resistance to MTX.
# To further characterize the maximum dose of MTX that could be tolerated by selected CTLL2 cells, transduced CTLL2 cells that had been cultured in 0.1 μM MTX for 8 days were re-plated at a wider range of MTX concentrations (up to 0.75 μM).
# [2] = system: non-transduced CTLL2 cells; test: MTX effect on non-transduced CTLL2 cells; type: cell-based, murine; conditions: ≥0.05 μM MTX
# Excerpt: In the absence of MTX, the non-transduced and transduced CTLL2 cells expanded at an equivalent rate (21- and 27-fold respectively).
# [3] = system: transduced primary human T cells (CD62L^+CD45RO^+); test: MTX selection of CD19CAR-huEGFRt-hDHFR^FS transduced primary human T cells; type: cell-based
# Method: (§1) Applicants transduced primary human T cells with the same CD19CAR-huEGFRt-hDHFR^FS lentiviral vector. Purified CD62L^+CD45RO^+ T cells were used as a starting population based on their potential for persistence after adoptive transfer. Ten days after transduction, these T cells were cultured in varying concentrations of MTX and assessed for cell number and viability over time.
# [4] = system: non-transduced primary human T cells; test: MTX effect on non-transduced primary human T cells; type: cell-based; conditions: starting at concentrations as low as 0.025 μM MTX
# Method: as §1
# [5] = system: huEGFRt^+ T cells; test: ADCC of huEGFRt^+ T cells, 4-hour chromium release assay; type: cell-based, human
# Excerpt: A valuable feature of a cell surface selection/tracking marker would be its capacity to serve as a target for in vivo cell ablation.
# ^51Cr-labeled huEGFRt^+ T cells as the target cells and human GM-CSF activated fresh PBMCs as effectors were co-cultured.
Molecule,huEGFRt^+ cells ([1]; 0.01 μM MTX),huEGFRt^+ cells ([1]; 0.025 μM MTX),huEGFRt^+ cells ([1]; 0.05 μM MTX),huEGFRt^+ cells ([1]; 0.1 μM MTX),expansion of transduced cells ([1]; MTX (0-0.1 μM) for 8 days),survival of transduced cells ([1]; MTX (0-0.1 μM) for 8 days),"expansion of transduced and pre-MTX selected cells ([1]; MTX concentrations up to 0.25 μM, pre-cultured in 0.1 μM MTX for 8 days)",non-transduced CTLL2 cell expansion and viability [2],"CD19CAR^+ cells ([3]; 0.025 μM MTX, 10 days)","EGFRt^+ cells ([3]; 0.025 μM MTX, 10 days)","CD19CAR^+ cells ([3]; 0.05 μM MTX, 10 days)","EGFRt^+ cells ([3]; 0.05 μM MTX, 10 days)",viability of transduced T cells ([3]; 0.1 μM MTX),CD19CAR^+ cells ([3]; Day 6 of culture (Day 0: 18%)),EGFRt^+ cells ([3]; Day 6 of culture (Day 0: 28%)),CD19CAR^+ cells ([3]; Day 10 of culture),EGFRt^+ cells ([3]; Day 10 of culture),viability and fold-expansion of non-transduced primary human T cells [4],triggering ADCC of huEGFRt^+ T cells [5]
"CN(Cc1cnc2nc(N)nc(N)c2n1)c1ccc(C(=O)N[C@@H](CCC(=O)O)C(=O)O)cc1 [MTX, methotrexate]",49%,93%,98.5%,99%,7 fold,80%,90-100 fold,strong inhibition,about 54%,~79%,about 76%,~89%,63%,48%,71%,70%,88%,strong inhibition,–
RITUXAN® (rituximab): CD20-specific mAb,–,–,–,–,–,–,–,–,–,–,–,–,–,–,–,–,–,–,no effect
